The text below walks through data of PubChem BioAssay (NCI).

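Cultured in 96-well plates, cells were exposed to test compound for 48 hours across five concentrations. TGI: total growth inhibition.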

What all share (test): NCI anticancer screen, dose series, 48 h
Experiment [1] relates to ACHN renal.
Experiment [2] deals with BT-549 breast.
Experiment [3] has as its system COLO 205 colon.
The subject of experiment [4] is HCT-116 colon.
Experiment [5] concerns M14 melanoma.
Experiment [6] concerns MOLT-4 leukemia.
For experiment [7], the system named is SF-295 CNS.
In experiment [8] the test system is SN12C renal.
Experiment [9] relates to SNB-19 CNS.
Experiment [10] has as its system UO-31 renal.

For the molecule `N#CSC#CCCC#CSC#N`, the TGI was determined as 31.4 µM in experiment [1]; 47.7 µM in experiment [2]; 26.7 µM in experiment [3]; 48.5 µM in experiment [4]; 26.4 µM in [5]; 6.92 µM in experiment [6]. The TGI came to 32.7 µM in [7], 31.9 µM in experiment [8], 29 µM in experiment [9] and 33.5 µM in experiment [10].

On to `C[C@]12[C@@H]3CC[C@H]1[C@@H](O)C(=O)N2CC3`, for which the TGI in experiment [1], in experiment [2], in experiment [3], in experiment [4], in experiment [5] and in [6] was more than 100 µM throughout. In addition, the TGI in experiment [7], in experiment [8], in [9] and in experiment [10] was more than 100 µM in each case.

Take `O=C1c2ccccc2-n2nnnc2C2CSCN12` (stereo not given): the TGI in experiment [1], in experiment [2], in experiment [3], in [4], in experiment [5] and in experiment [6] was more than 100 µM each time. Further, the TGI in [7], in experiment [8], in experiment [9] and in experiment [10] was more than 100 µM throughout.

Take `CC(C)(CN1CCCCC1)C(/C=C/c1ccc(Cl)cc1)=N\NC(=O)N/N=C(/C=C/c1ccc(Cl)cc1)C(C)(C)CN1CCCCC1`: the TGI was 15 µM in [1]; 13.2 µM in experiment [2]; 11.7 µM in experiment [3]; 12.5 µM in experiment [4]; 11.1 µM in [5]; 9.97 µM in experiment [6]. In addition, the TGI in [7] is 33 µM; in experiment [8] it was 14.6 µM; in [9], 16.3 µM; in [10] it was 9.03 µM.

In the case of `COc1ccc(C2=CC(C(C)=C(C(N)=O)C(N)=O)C=C(c3ccc(Br)cc3)C2)c(OC)c1` (stereo not given), the TGI in experiment [1], in experiment [2], in experiment [3], in [4], in experiment [5] and in experiment [6] was more than 100 µM throughout. The TGI in [7], in experiment [8], in experiment [9] and in experiment [10] was more than 100 µM throughout.

Consider `CCOC(=O)c1ccc(-c2cc(C)no2)[nH]1`, for which the TGI in [1], in experiment [2], in experiment [3], in experiment [4], in experiment [5] and in [6] was more than 100 µM in each case. Moreover, the TGI in experiment [7], in experiment [8], in experiment [9] and in experiment [10] was more than 100 µM each time.

On to `O=C1SC(SCc2ccccc2)=NC12CC2c1ccccc1` (stereo not given), for which the TGI in experiment [1] turned out to be 38.2 µM; in experiment [2] it was 52.8 µM; in [3], 61.3 µM; in experiment [4] it was 31.4 µM; in experiment [5], 37.8 µM; in [6], 10.3 µM. Further, the TGI was 44.8 µM in experiment [7], 44.3 µM in experiment [8], 71.1 µM in experiment [9] and 41.2 µM in [10].

Take `CCOC(=O)c1cn2c(n1)sc1cc(F)ccc12`: the TGI in experiment [1], in [2], in experiment [3], in experiment [4], in experiment [5] and in [6] was more than 100 µM in each case. Further, the TGI in experiment [7], in [8], in experiment [9] and in experiment [10] was more than 100 µM each time.

For `CCOC(=O)/C(C#N)=C/c1coc2cc(C)cc(C)c2c1=O`, the TGI in experiment [1], in [2], in [3], in [4], in experiment [5] and in experiment [6] was more than 100 µM each time. Besides, the TGI in experiment [7], in experiment [8], in experiment [9] and in [10] was more than 100 µM in each case.

As to `O=C1c2sc(-c3ccc(Cl)cc3)cc2-n2cccc21`, the TGI in [1], in [2], in experiment [3], in experiment [4], in experiment [5] and in [6] was more than 100 µM each time. The TGI in experiment [7], in experiment [8], in [9] and in experiment [10] was more than 100 µM each time.

With `O=C1/C(=C\c2ccc(Cl)cc2Cl)Sc2scc(-c3ccc(O)c(O)c3)[n+]21`, the TGI in experiment [1] was determined as 46.3 µM; in experiment [2] it was 46.7 µM; in experiment [3], 40.5 µM; in [4], 29.8 µM; in experiment [5], 40.6 µM; in experiment [6], 29.6 µM. Further, the TGI was determined as 49.2 µM in [7], 30.3 µM in [8], 48.8 µM in [9] and 26.8 µM in experiment [10].

Take `Cc1ccc(S(=O)(=O)N2C3C=CC(C3)[C@@H]2C(Cl)(Cl)Cl)cc1` (stereo not given in full): the TGI in experiment [1] is 53.1 µM; in [2] it was 32.4 µM; in experiment [3], 38.2 µM; in experiment [4] it was 24.7 µM; in [5] it was 39.1 µM; in experiment [6], 75 µM. The TGI is 35.1 µM in [7], 44.2 µM in [8], more than 87.6 µM in experiment [9] and 59.3 µM in experiment [10].

For `COc1cc2c(/C=C3/C(=O)Nc4cccc(Cl)c43)c(Cl)[nH]c2cc1C`, the TGI in experiment [1] amounted to 12.2 µM; in [2] it was 3.67 µM; in experiment [3], 4.1 µM; in experiment [4] it was 3.19 µM; in experiment [5], 7.78 µM; in experiment [6] it was 1.26 µM. Moreover, the TGI turned out to be 4.21 µM in experiment [7], 3.33 µM in [8], 7.13 µM in experiment [9] and 17.1 µM in experiment [10].
